Assay results reported in US12275733B2, “Substituted pyrido[3,4-b]indoles for the treatment of cartilage disorders” (Sanofi, priority 2016, dated 2025).
pEC50: −log10 of the molar value.

System: ATDC5 cells
Assay: Chondrogenesis activity assay in ATDC5 cells (collagen type II induction, immunofluorescence)
Format: cell-based, mouse
Conditions: Mus musculus; for pEC50: collagen type II induction in ATDC5 cells, concentration reaching 50% of maximum induction; for Emax: maximum percent induction of collagen type II relative to internal reference compound at 10 μM, ATDC5 cells
Method: A) Chondrogenesis Activity Assay in ATDC5 Cells
The chondrogenic potential of the compounds of the invention was determined using clonal mouse chondrogenic ATDC5 cells (T. Atsumi et al., Cell Differ. Dev. 1990, 30, 109-116). ATDC5 cells are derived from mouse embryonic AT805 teratocarcinoma cells and are used frequently to study the multistep chondrogenic differentiation process from precursor cells into chondrocytes (C. Shukunami et al., Exp. Cell Res. 1998, 241, 1-11; H. Aklyami et al., J. Bone Miner. Res. 1996, 11, 22-28; H. Akiyami et al., Biochem. Biophys. Res. Commun. 1997, 235, 142-147; C. Shukunami et al., J. Cell Biol. 1996, 133, 457-468; C. Shukunami et al., J. Bone Miner. Res. 1997, 12, 1174-1188). Undifferentiated ATDC5 cells grow in vitro until confluence, showing a fibroblast-like morphology. In the presence of insulin, cells undergo transient condensation and form numerous nodular structures (cartilage nodules). The cartilagenous nature of these nodules was shown by Alcian Blue staining as evidence of the production of proteoglycan (aggrecan) and collagen type II expression (by expression analysis), both molecular markers of chondrocytes (C. Shukunami et al., J. Cell Biol. 1996, 133, 457-468).
Chondrogenic differentiation of ATDC5 cells into chondrocytes by the compounds of the invention was determined by measuring the induction of type II collagen protein as a marker of chondrocytes, a structural component of the extracellular matrix which constitutes more than 80% of cartilage mass (D. R. Eyre, Clin. Orthop. Relat. Res. 2004, 427 Suppl, S118-S122). ATDC5 cells were obtained from RIKEN and cultured as monolayer in basal culture medium (Dulbecco's Modified Eagle Medium/Nutrient Mixture F-12 (DMEM/F12, Invitrogen, #31331-093) supplemented with 10 μg/ml Transferrin (Roche, #10652 202001), 3×10E−8 M sodium seienite (Sigma, #S-5261) and 5% Fetal Calf Serum (FCS Gold, PAA, #A15-251)), at 37° C., and 5% CO2 in plastic flasks of 75 cm^2 or 300 cm^2 subconfluently for propagation. ATDC5 cells were harvested and resuspended in differentiation culture medium that consisted of basal culture medium complemented with 10 μg/ml insulin (Sigma, #19278), to initiate chondrogenic differentiation. For studying the effect of test compounds, the ATDC5 cells were plated in 96-well plates (3.0×10E4 cells per well in 200 μl of differentiation culture medium). Test compounds dissolved in DMSO were added to yield increasing compound concentrations, typically from 40 nM to 10 μM, and a final DMSO concentration of 0.1%. On each 96-well plate, control wells containing no test compound but the same concentration of DMSO, i.e. untreated cells, were included and used as reference for the determination of the effect of the test compounds on the cells, and wells containing an internal reference compound at a concentration of 10 μM were included and used as positive control and for standardizing the results. Cells in the wells were incubated for 4 days at 37° C., and 5% CO2, followed by quantification of intracellular collagen type II.
Quantification of collagen type II in the ATDC5-cells was done by immunofluorescence staining of collagen type II, and fluorescence intensity was measured using a cellular high content imaging system (ImageXpress, Molecular Device). For immunofluorescence staining of intracellular collagen, medium was removed after compound incubation and cells were fixed with 200 μl/well methanol/water (95%/5%). Cells were permeabilized in 200 μl/well phosphate-buffered saline (PBS) containing 0.2% Triton X100 for 15 min and, after removal of the solution, blocked for 30 min with 200 μl/well PBS/0.2% Triton X100 containing 1% bovine serum albumin (BSA) to avoid unspecific binding. After the blocking step, the solution was removed and collagen type II staining solution was added. […]

| SMILES | pEC50 | Emax [%] |
| --- | --- | --- |
| CCn1c2cnccc2c2cc(Cl)cc(-c3cccnc3)c21 [Example 1, 6-Chloro-9-ethyl-8-pyridin-3-yl-9H-pyrido[3,4-b]indole] | 5.77 | < 20 |
| CC#CCn1c2cnccc2c2cc(Cl)cc(-c3ccc(Cl)nc3Cl)c21 [Example 3, 9-(But-2-ynyl)-6-chloro-8-(2,6-dichloropyridin-3-yl)-9H-pyrido[3,4-b]indole] | < 5.00 | 20 to 50 |
| N#CCn1c2cnccc2c2cc(Cl)cc(-c3ccc(Cl)nc3Cl)c21 [Example 4, 2-(6-Chloro-8-(2,6-dichloropyridin-3-yl)-9H-pyrido[3,4-b]indol-9-yl)acetonitrile] | 6.08 | > 80 |
| CCn1c2c(-c3ccn(Cc4cccnc4C)n3)cc(Cl)cc2c2ccnc(C)c21 [Example 6, 6-Chloro-9-ethyl-1-methyl-8-[1-(2-methyl-pyridin-3-ylmethyl)-1H-pyrazol-3-yl]-9H-pyrido[3,4-b]indole] | 5.66 | 50 to 80 |
| CCn1c2c(-c3ccnn3Cc3cccnc3C)cc(Cl)cc2c2ccnc(C)c21 [Example 7, 6-Chloro-9-ethyl-1-methyl-8-[2-(2-methyl-pyridin-3-ylmethyl)-2H-pyrazol-3-yl]-9H-pyrido[3,4-b]indole] | < 5.48 | < 20 |
| CCn1c2c(-c3cc(C)nn3C)cc(Cl)cc2c2ccnc(C)c21 [Example 9, 6-Chloro-8-(2,5-dimethyl-2H-pyrazol-3-yl)-9-ethyl-1-methyl-9H-pyrido[3,4-b]indole] | 5.85 | > 80 |
| CC(C)(C)OC(=O)n1cc(-c2cc(Cl)cc3c4ccncc4n(CC(F)(F)F)c23)cn1 [Example 12, tert-Butyl 4-(6-chloro-9-(2,2,2-trifluoroethyl)-9H-pyrido[3,4-b]indol-8-yl)-1H-pyrazole-1-carboxylate] | < 5.00 | 20 to 50 |
| COc1ccc(-c2cc(C)cc3c2[nH]c2c(C)nccc23)cc1 [Example 14, 8-(4-Methoxy-phenyl)-1,6-dimethyl-9H-pyrido[3,4-b]indole] | 6.07 | > 80 |
| CCn1c2c(-c3cnn(C)c3)cc(C)cc2c2ccnc(C)c21 [Example 15, 9-Ethyl-1,6-dimethyl-8-(1-methyl-1H-pyrazol-4-yl)-9H-pyrido[3,4-b]indole] | 6.00 | 50 to 80 |
| Cc1cc2c([nH]c3c(-c4ccc(OCCn5cccn5)cc4)cc(Br)cc32)c(C)n1 [Example 16, 6-Bromo-1,3-dimethyl-8-[4-(2-pyrazol-1-yl-ethoxy)-phenyl]-9H-pyrido[3,4-b]indole] | 5.55 | 50 to 80 |
| CCn1c2c(-c3ccc(OC)c(N)n3)cc(Cl)cc2c2ccnc(C)c21 [Example 17, 6-(6-Chloro-9-ethyl-1-methyl-9H-pyrido[3,4-b]indol-8-yl)-3-methoxy-pyridin-2-ylamine] | 5.44 | > 80 |
| CCn1c2c(-c3cc(-c4ccccc4)no3)cc(Cl)cc2c2ccnc(C)c21 [Example 18, 6-Chloro-9-ethyl-1-methyl-8-[3-phenyl-isoxazol-5-yl)-9H-pyrido[3,4-b]indole] | 6.00 | > 80 |
| CCn1c2c(-c3ccn(C)n3)cc(Cl)cc2c2ccnc(C)c21 [Example 20, 6-Chloro-9-ethyl-1-methyl-8-(1-methyl-1H-pyrazol-3-yl)-9H-pyrido[3,4-b]indole] | 5.41 | 50 to 80 |
| Cc1nccc2c1[nH]c1c(-c3ccc4c(c3)CC(C)O4)cc(Cl)cc12 (centres unmarked) [Example 23, 6-Chloro-1-methyl-8-(2-methyl-2,3-dihydro-benzofuran-5-yl)-9H-pyrido[3,4-b]indole] | 5.80 | 50 to 80 |

Further lines, with some results ahead:

| pEC50 | SMILES | Emax [%] |
| --- | --- | --- |
| 5.70 | Cc1nccc2c1[nH]c1c(-c3ccc(C(O)c4ccccc4)cc3)cc(Cl)cc12 (centres unmarked) [Example 24, [4-(6-Chloro-1-methyl-9H-pyrido[3,4-b]indol-8-yl)-phenyl]-phenyl-methanol] | 50 to 80 |
| 6.77 | Cc1nccc2c3cc(Cl)cc(-c4cnn(C)c4)c3n(C)c12 [Example 25, 6-Chloro-1,9-dimethyl-8-(1-methyl-1H-pyrazol-4-yl)-9H-pyrido[3,4-b]indole] | > 80 |
| 6.28 | CCn1c2c(-c3ccc(OCCN(C(C)C)C(C)C)cc3)cc(Cl)cc2c2ccnc(C)c21 [Example 26, (2-[4-(6-Chloro-9-ethyl-1-methyl-9H-pyrido[3,4-b]indol-8-yl)-phenoxy]-ethyl)-diisopropyl-amine] | 50 to 80 |
| 6.72 | CCn1c2c(-c3ccc(OCCN4CCOCC4)cc3)cc(Cl)cc2c2ccnc(C)c21 [Example 28, 6-Chloro-9-ethyl-1-methyl-8-[4-(2-morpholin-4-yl-ethoxy)-phenyl]-9H-pyrido[3,4-b]indole] | > 80 |
| 6.57 | CCn1c2c(-c3ccc(CN4CCOCC4)cc3)cc(Cl)cc2c2ccnc(C)c21 [Example 30, 6-Chloro-9-ethyl-1-methyl-8-(4-morpholin-4-ylmethyl-phenyl)-9H-pyrido[3,4-b]indole] | > 80 |
| 6.60 | Cc1nccc2c1[nH]c1c(-c3ccc(C=O)cc3)cc(Cl)cc12 [Example 31, 4-(6-Chloro-1-methyl-9H-pyrido[3,4-b]indol-8-yl)-benzaldehyde] | > 80 |
| 6.43 | Cc1nccc2c1[nH]c1c(-c3ccc(C(O)c4ccccn4)cc3)cc(Cl)cc12 (centres unmarked) [Example 32, [4-(6-Chloro-1-methyl-9H-pyrido[3,4-b]indol-8-yl)-phenyl]-pyridin-2-yl-methanol] | 50 to 80 |
| 5.51 | COc1ccc(-c2cc(C(=O)O)cc3c2[nH]c2c(C)nccc23)cc1 [Example 35, 8-(4-Methoxy-phenyl)-1-methyl-9H-pyrido[3,4-b]indole-6-carboxylic acid] | > 80 |
| 7.00 | COc1ccc(-c2cc(C(N)=O)cc3c2[nH]c2c(C)nccc23)cc1 [Example 36, 8-(4-Methoxy-phenyl)-1-methyl-9H-pyrido[3,4-b]indole-6-carboxamide] | > 80 |
| 5.59 | CCn1c2c(-c3cnn(Cc4ccc5ccccc5n4)c3)cc(Br)cc2c2ccnc(C)c21 [Example 38, 6-Bromo-9-ethyl-1-methyl-8-(1-quinolin-2-ylmethyl-1H-pyrazol-4-yl)-9H-pyrido[3,4-b]indole] | 50 to 80 |
| 6.80 | Cc1nccc2c1[nH]c1c(-c3ccc(OCC4COCCO4)cc3)cc(Cl)cc12 (centres unmarked) [Example 40, 6-Chloro-8-[4-([1,4]dioxan-2-ylmethoxy)-phenyl]-1-methyl-9H-pyrido[3,4-b]indole] | > 80 |
| 6.62 | Cc1nccc2c1[nH]c1c(-c3ccc(OCc4ncc5ccccc5n4)cc3)cc(Cl)cc12 [Example 41, 6-Chloro-1-methyl-8-[4-(quinazolin-2-ylmethoxy)-phenyl]-9H-pyrido[3,4-b]indole] | 50 to 80 |
| 6.29 | Cc1nccc2c1[nH]c1c(-c3ccc(OCCn4cc(Br)cn4)cc3)cc(Cl)cc12 [Example 42, 8-(4-[2-(4-Bromo-pyrazol-1-yl)-ethoxy]-phenyl)-6-chloro-1-methyl-9H-pyrido[3,4-b]indole] | 50 to 80 |
| < 5.18 | Cc1nc(Br)cc2c1[nH]c1c(-c3ccc(OCCn4cc(Br)cn4)cc3)cc(Cl)cc12 [Example 43, 3-Bromo-8-(4-[2-(4-bromo-pyrazol-1-yl)-ethoxy]-phenyl)-6-chloro-1-methyl-9H-pyrido[3,4-b]indole] | < 20 |
